Reference: patent US6150363A, “Dihydrophenazinecarboxylic acid derivatives” (priority 1996, dated 2000)
Structures can show the parent of a compound that is named as a salt.

Key:
N18-RE-105 cell [1] = assay: Test for inhibition of BSO toxicity to neurocyte (LDH release); type: cell-based, hybridoma of mouse neuroblastoma and rat retinal neurocyte; conditions: for EC50: BSO 500 μM, 24 hours; for cytoprotective action to BSO toxicity in neurocyte: result in words
Description: (2) Test for inhibition of BSO toxicity to neurocyte (neurocyte protective action against cytotoxicity accompanied by decrease of amount of intracellular glutathione)
The culture of neurocyte N18-RE-105, addition of the test compound, and determination of lactate dehydrogenase (LDH) were carried out in the manner as described in (1) above. BSO was added at the concentration of 500 μM.

N18-RE-105 cell [2] = assay: Test for inhibition of glutamic acid toxicity to neurocyte (LDH release); type: cell-based, hybridoma of mouse neuroblastoma and rat retinal neurocyte; conditions: for EC50: 10 mM glutamic acid, 24 hours; for cytoprotective action to glutamic acid toxicity in neurocyte: result in words
Description: Neuron 2, 1547 (1989) and J. Pharmacol. Exp. […] The dihydrophenazinecarboxylic acid derivatives of the invention were examined in the action to the glutamic acid-induced cell death. […] Hybridoma cells were plated at 6.25×10^3 cells/cm^2. on 96 well microplate in Dalbecco's modified MEM containing 10% FBS (fetal bovine serum) and HAT (hypoxanthine 0.1 mM, aminopterin 40 nM, thymidine 0.14 mM, Sigma Chem., Co.). […] After the addition of glutamic acid, the culture was maintained for further 24 hours. Then, the activity of lactate dehydrogenase (LDH) contained in the cells and the medium was determined. The LDH releasing ratio was calculated using the below-mentioned equation to examine the glutamic acid toxicity. LDH releasing ratio=[LDH activity in medium/(LDH activity in cells and LDH activity in medium)]×100

free radical = conditions: cited from earlier work; for free radical scavenger (anti-oxidant): J. Nat. Prod., 56, 1255(1993); for antioxidant property: J. Antibiotics, 48, 1378 (1995) and PCT WO96/22996
[3] = Stability at room temperature under atmospheric conditions; type: physicochemical
hippocampal cells = assay: Test for inhibition of glutamic acid toxicity to hippocampal cells in primary culture (LDH); type: cell-based; conditions: hippocampal cell, rat fetus, 1 mM glutamic acid, 48 hours
Description: 1) Preparation of hippocampal cells (from rat fetus in primary culture) A pregnant rat (18 days pregnancy) was anesthetized by Pentobarbital sodium. Its abdomen was sterilized using 83% ethanol and treated to take its fetus out. The whole brain was taken out from the fetus under stereomicroscopical observation. From the brain, its hippocampal portion was taken out. The hippocampal portion was cut into small pieces using a knife. The procedures for taking the hippocampal portion out and cutting the portion into small pieces were performed in a Hanks buffer solution (4° C.) without Ca^2+ and Mg^2+. The pieces of hippocampus were treated with 0.25% trypsin/0.01% DNase I solution at 37° C. for 30 minutes. After the addition of dialyzed FBS at the concentration of 20%, the treated specimen was recovered by centrifugal separation and suspended in DMEM containing GMS-A obtained from GIBCO (S1 culture medium). The specimen was gently treated by a pipet to give a cell suspension. […] 2) Determination of activity (Lactate dehydrogenase (LDH) method) The cytoprotective action of the test compound was determined by measuring activity of LDH released from the dead cells and activity of LDH in the living cells. […] After the culturing procedure was complete, the activity of lactate dehydrogenase was determined in the manner described in 1) above.

ddY strain male mice = assay: Acute toxicity, intravenous, mice; type: in vivo; conditions: 5 mg, intravenous injection
Description: The compound of the invention (ethyl 7-benzoyl-5,10-dihydro-1-phenazinecarboxylate obtained in Example 1) was administered to ddY strain male mice (weight: 23 to 27 g) in a dose of 5 mg by intravenous injection.

[4] = tested on: rat whole brain homogenate; assay: Test for inhibition of production of peroxidized lipid in rat whole brain homogenate (TBA method); type: biochemical; conditions: 10^-4 M, iron-ascorbic acid, 37° C., one hour
Description: (4) Test for inhibition of production of peroxidized lipid in rat whole brain homogenate
From the rat which had been fed with vitamin E deficient food for 11 weeks, a whole brain was taken out and frozen in liquid nitrogen. After the frozen whole brain was pulverized to give a powder, it was homogenized by Dounce type homogenizer. The homogenate was subjected to centrifugal separation at 180×g for 10 minuets, and the supernatant was recovered. The recovered supernatant was employed as the whole brain homogenate. The reaction of lipid peroxidation was initiated by stimulation using iron-ascorbic acid. The peroxidized lipid was quantitatively analyzed by the thiobarbituric acid (TBA) method. In more detail, 200 μL of the whole brain homogenate (protein content: 12.5 mg/mL), 50 μL of ADP (2 mg/mL), 50 μL of FeSO4 (0.5 mM), 50 μL of ascorbic acid (12 mM), and 50 μL of the test compound were added to 100 μL of 0.2M Tris-HCl buffer solution. The mixture was incubated at 37° C. for one hour. After the incubation was complete, 50 μL of 0.5% butylhydroxytoluene/ethanol solution, 250 μL of 8.1% SDS (sodium dodecylsulfate) solution, 1,750 μL of 20% acetic acid, and 1,500 μL of 0.8% TBA solution were added to the incubated mixture. The resulting mixture was boiled for one hour. […] The separated supernatant was subjected to measurement of absorbance at 535 nm.

glutamic acid toxicity = conditions: J. Antibiotics, 48, 1378 (1995) and PCT WO96/22996; cited from earlier work

CCOC(=O)c1cccc2c1Nc1ccc(C(=O)c3ccccc3)cc1N2Cc1ccccc1 [Compound 3, Ethyl 7-benzoyl-5-benzyl-5,10-dihydro-1-phenazinecarboxylate]
EC50 (N18-RE-105 cell [1]): 72 nM | EC50 (N18-RE-105 cell [2]): 40.7 nM

COC(=O)c1cc(C(=O)c2ccccc2)cc2c1Nc1ccc(C(=O)c3ccccc3)cc1N2C/C=C(\C)CCC=C(C)C [its methyl ester]
free radical scavenger (anti-oxidant) (free radical): employable as a free radical scavenger (anti-oxidant)

CCOC(=O)c1cccc2c1Nc1ccccc1N2 [ethyl 5,10-dihydro-1-phenazinecarboxylate]
stability [3]: unstable at room temperature

CC(CNC(=O)c1cccnc1)NC(=O)c1cccnc1 (stereo not shown) [Nicarven, nicaraven]
EC50 (N18-RE-105 cell [1]): > 100000 nM | cytoprotective action to BSO toxicity in neurocyte (N18-RE-105 cell [1]): no cytoprotective action | EC50 (N18-RE-105 cell [2]): > 100000 nM | cytoprotective action to glutamic acid toxicity in neurocyte (N18-RE-105 cell [2]): no cytoprotective action

CC(C)=CCN1c2cc(C(=O)c3ccccc3)ccc2Nc2c(C(=O)OCCCN(C)C)cccc21 [Compound 5, 3-(Dimethylamino)propyl 7-benzoyl-5,10-dihydro-5-(3-methyl-2-butenyl)-1-phenazinecarboxylate hydrochloride]
EC25 (hippocampal cells): 57.5 nM

CCOC(=O)c1cccc2c1Nc1ccc(C(=O)c3ccccc3)cc1N2 [Compound 1, Ethyl 7-benzoyl-5,10-dihydro-1-phenazinecarboxylate]
EC50 (N18-RE-105 cell [1]): 6 nM | EC50 (N18-RE-105 cell [2]): 3.3 nM | death (acute toxicity) (ddY strain male mice): No death was observed

O=c1c2ccccc2[se]n1-c1ccccc1 [Ebselen, ebselen]
EC50 (N18-RE-105 cell [1]): 7500 nM | cytoprotective action to BSO toxicity in neurocyte (N18-RE-105 cell [1]): no cytoprotective action | EC50 (N18-RE-105 cell [2]): 10100 nM | cytoprotective action to glutamic acid toxicity in neurocyte (N18-RE-105 cell [2]): no cytoprotective action

CCOC(=O)c1cccc2c1Nc1ccc(C(=O)c3ccccc3)cc1N2CC=C(C)C [Compound 2, Ethyl 7-benzoyl-5,10-dihydro-5-(3-methyl-2-butenyl)-1-phenazinecarboxylate]
EC25 (hippocampal cells): 12 nM | EC50 (N18-RE-105 cell [1]): 96.2 nM | EC50 (N18-RE-105 cell [2]): 14.5 nM | Inhibition of lipid peroxidation (% per control value) [4]: 60.2%

CC(C)=CCN1c2cc(C(=O)c3ccccc3)ccc2Nc2c(C(=O)OC3O[C@@H](C)[C@H](O)[C@@H](O)[C@H]3O)cccc21 (stereo partly shown) [aestivophoenin A]
antioxidant property (free radical): shows antioxidant property | inhibition of glutamic acid toxicity (glutamic acid toxicity): inhibit glutamic acid toxicity

CC(C)=CCC/C(C)=C/CN1c2cc(C(=O)c3ccccc3)ccc2Nc2c(C(=O)O)cc(C(=O)c3ccccc3)cc21 [benthophoenin]
free radical scavenger (anti-oxidant) (free radical): employable as a free radical scavenger (anti-oxidant)

CCOC(=O)c1cccc2c1Nc1ccc(C(=O)c3ccccc3)cc1N2C(=O)OC [Comparative, Ethyl 7-benzoyl-5,10-dihydro-5-methoxycarbonyl-1-phenazinecarboxylate]
EC50 (N18-RE-105 cell [1]): > 1000 nM | cytoprotective action to BSO toxicity in neurocyte (N18-RE-105 cell [1]): no cytoprotective action | EC50 (N18-RE-105 cell [2]): > 1000 nM | cytoprotective action to glutamic acid toxicity in neurocyte (N18-RE-105 cell [2]): no cytoprotective action

CCOC(=O)c1cccc2c1Nc1ccc(C(=O)c3ccccc3)cc1N2C [Compound 4, Ethyl 7-benzoyl-5,10-dihydro-5-methyl-1-phenazinecarboxylate]
EC50 (N18-RE-105 cell [1]): 90 nM | EC50 (N18-RE-105 cell [2]): 58 nM

CC(C)=CCc1cc(C(=O)c2ccccc2)cc2c1Nc1c(C(=O)OC3O[C@@H](C)[C@H](O)[C@@H](O)[C@H]3O)cccc1N2CC=C(C)C (stereo partly shown) [aestivophoenin B]
antioxidant property (free radical): shows antioxidant property | inhibition of glutamic acid toxicity (glutamic acid toxicity): inhibit glutamic acid toxicity
